Assay results reported in patent publication US11420970B1 (NOVARTIS AG, priority 2019, dated 2022).
Like-named read-outs stand apart in the source and are kept apart here.

Key:
NSD2 [1-1365] = NSD2 [1-1365] (Homo sapiens (Human), UniProt O96028); assay: LC-MS/MS-based NSD2 enzymatic assay (SAH production); type: biochemical; conditions: read-out: NSD2 IC50
Method in brief: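 Full-length NSD2 [1-1365] (8 nM final) with 1 μM SAM and 400 nM mouse-liver nucleosome in Tris pH 8.0 buffer; inhibitor preincubated 20 min with enzyme/SAM before nucleosome addition. Reaction 90 min at room temperature, TFA-quenched; SAH quantified by LC-MS/MS against d4-SAH internal standard and SAH standard curve.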

[1] = system: cellular H3K36me2 level in multiple myeloma cell line KMS11 (t(4;14)+); assay: H3K36me2 cellular FRET assay in KMS11-Par line; type: cell-based; conditions: Homo sapiens
[2] = system: cellular H3K36me2 level in thyroid carcinoma cell line CGTH-W-1 (NSD2 E1099K); assay: H3K36me2 cellular ELISA assay in CGTH-W-1 line; type: cell-based; conditions: Homo sapiens, CGTH-W-1, 72 h, read-out: H3K36me2 ELISA in CGTH-W-1
Method in brief: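 CGTH-W-1 thyroid carcinoma cells (NSD2 E1099K gain-of-function) exposed to compound for 72 hours. Histone-bound plates probed for H3K36me2 and total H3 by chemiluminescent ELISA. Viability checked on a parallel plate with CellTiter-Glo.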

[3] = system: cellular H3K36me2 level in multiple myeloma cell line KMS11 (t(4;14)+); assay: H3K36me2 cellular ELISA assay in KMS11-Par line; type: cell-based; conditions: Homo sapiens, read-out: H3K36me2 ELISA in KMS11-Par
Method in brief: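 KMS11 cells were seeded a day ahead at 1,250 per well in Opti-MEM with B-27/N2, then treated with compound for 72 h. Histones were acid-extracted with 0.4M HCl, and H3K36me2 and total H3 were read by chemiluminescent ELISA. Viability was checked with CellTiter-Glo on a parallel plate in maintenance media.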

[4] = NSD2 biochemical activity, class symbols
[5] = KMS-11, KMS11-Par line, cellular H3K36me2 level, FRET, read-out: H3K36me2 FRET in KMS11-Par
[6] = KMS-11, KMS11-Par line (t(4;14)+), 72 hours treatment, ELISA

NSD2 [1-1365], sequence (O96028 whole entry): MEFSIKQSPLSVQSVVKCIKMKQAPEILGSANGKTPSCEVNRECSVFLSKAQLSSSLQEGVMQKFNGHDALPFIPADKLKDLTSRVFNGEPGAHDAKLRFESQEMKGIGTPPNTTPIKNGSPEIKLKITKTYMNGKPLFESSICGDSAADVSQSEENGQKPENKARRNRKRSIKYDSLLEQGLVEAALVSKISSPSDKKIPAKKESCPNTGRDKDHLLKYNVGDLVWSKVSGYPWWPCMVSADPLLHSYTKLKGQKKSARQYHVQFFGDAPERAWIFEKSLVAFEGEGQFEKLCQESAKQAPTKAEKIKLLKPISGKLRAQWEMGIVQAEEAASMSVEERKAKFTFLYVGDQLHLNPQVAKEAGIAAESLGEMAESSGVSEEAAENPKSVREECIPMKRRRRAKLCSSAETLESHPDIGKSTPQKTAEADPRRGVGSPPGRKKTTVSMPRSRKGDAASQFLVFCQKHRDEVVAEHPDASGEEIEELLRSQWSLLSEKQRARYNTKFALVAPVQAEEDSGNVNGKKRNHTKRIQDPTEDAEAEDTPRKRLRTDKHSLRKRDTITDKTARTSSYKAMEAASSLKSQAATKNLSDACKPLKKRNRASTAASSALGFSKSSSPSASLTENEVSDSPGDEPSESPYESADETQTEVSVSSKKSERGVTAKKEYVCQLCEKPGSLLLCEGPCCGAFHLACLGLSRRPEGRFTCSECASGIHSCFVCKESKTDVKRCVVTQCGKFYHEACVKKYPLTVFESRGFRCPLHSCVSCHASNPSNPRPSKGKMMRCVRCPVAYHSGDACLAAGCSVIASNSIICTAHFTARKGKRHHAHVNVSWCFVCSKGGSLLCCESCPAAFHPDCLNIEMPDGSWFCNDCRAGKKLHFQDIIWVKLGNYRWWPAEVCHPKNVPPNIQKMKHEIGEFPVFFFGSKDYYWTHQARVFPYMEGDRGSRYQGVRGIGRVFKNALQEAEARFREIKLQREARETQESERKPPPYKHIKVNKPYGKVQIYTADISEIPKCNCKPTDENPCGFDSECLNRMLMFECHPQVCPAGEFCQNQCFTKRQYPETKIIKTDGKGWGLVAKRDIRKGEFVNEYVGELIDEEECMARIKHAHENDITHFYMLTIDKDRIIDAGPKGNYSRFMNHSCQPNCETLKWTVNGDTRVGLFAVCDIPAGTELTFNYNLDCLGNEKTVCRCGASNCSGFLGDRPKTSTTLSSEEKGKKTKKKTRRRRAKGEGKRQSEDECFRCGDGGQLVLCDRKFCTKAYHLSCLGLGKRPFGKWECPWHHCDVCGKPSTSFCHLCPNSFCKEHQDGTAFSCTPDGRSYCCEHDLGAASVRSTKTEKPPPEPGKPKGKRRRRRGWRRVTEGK

Compound | IC50 (NSD2 [1-1365]; [4]) [µM] | IC50 [1, 5] [µM] | IC50 [2] [µM] | IC50 [3, 6] [µM] | IC50 ([1]; KMS-11, read-out: H3K36me2 FRET in KMS11-Par) [µM] | IC50 ([3]; KMS-11, 72 h) [µM] | IC50 (NSD2 [1-1365]) [µM] | IC50 ([1]; KMS-11, KMS11-Par line, FRET, read-out: H3K36me2 FRET in KMS11-Par) [µM] | IC50 ([3]; KMS-11, KMS11-Par line, ELISA, 72 hours) [µM]
COc1ccc(-c2cc(Cn3cnc4c(N)ncnc43)c(N3CCC[C@](N)([C@@H](C)OC)C3)cn2)cc1F [Example 94, 9-((5-((R)-3-amino-3-((R)-1-methoxyethyl)piperidin-1-yl)-2-(3-fluoro-4-methoxyphenyl)pyridin-4-yl)methyl)-9H-purin-6-amine] | 0.01 to 1 | 3.04 | 1.09 | 1.2 |  |  |  |  | 
COc1ccc(-c2cc(Cn3cnc4c(N)ncnc43)c(N3CCC[C@](N)(CC(F)F)C3)cn2)cc1F [Example 61, (S)-9-((5-(3-amino-3-(2,2-difluoroethyl)piperidin-1-yl)-2-(3-fluoro-4-methoxyphenyl)pyridin-4-yl)methyl)-9H-purin-6-amine] | 0.01 to 1 | 1.42 | 0.643 |  |  |  |  |  | 
CO[C@H](C)[C@@]1(N)CCCN(c2cnc(-c3ccc(F)c(F)c3)cc2Cn2cnc3c(N)ncnc32)C1 [Example 97, 9-((5-((R)-3-amino-3-((R)-1-methoxyethyl)piperidin-1-yl)-2-(3,4-difluorophenyl)pyridin-4-yl)methyl)-9H-purin-6-amine] | 0.01 to 1 | 1.5 | 1.16 | 1.24 |  |  |  |  | 
Nc1ncnc2c1ncn2Cc1cc(-c2ccc(F)c(F)c2)ncc1N1CCC[C@](N)(Cc2ncco2)C1 [Example 52, (S)-9-((5-(3-amino-3-(oxazol-2-ylmethyl)piperidin-1-yl)-2-(3,4-difluorophenyl)pyridin-4-yl)methyl)-9H-purin-6-amine] | 0.001 to 0.01 | 1.2 | 0.541 | 1.32 |  |  |  |  | 
COc1ccc(-c2cc(Cn3cnc4c(N)ncnc43)c(N3CCC[C@](N)([C@H](C)OC)C3)cn2)cc1F [Example 93, 9-((5-((R)-3-amino-3-((S)-1-methoxyethyl)piperidin-1-yl)-2-(3-fluoro-4-methoxyphenyl)pyridin-4-yl)methyl)-9H-purin-6-amine] | 0.01 to 1 | 1.39 | 3.21 | 3.97 |  |  |  |  | 
Nc1ncnc2c1ncn2Cc1cc(-c2ccc(F)c(F)c2)ncc1N1CCC[C@](N)(CC(F)F)C1 [Example 47, (S)-9-((5-(3-amino-3-(2,2-difluoroethyl)piperidin-1-yl)-2-(3,4-difluorophenyl)pyridin-4-yl)methyl)-9H-purin-6-amine] | 0.01 to 1 | 1.18 | 0.377 | 1.54 |  |  |  |  | 
COc1ccc(-c2cc(Cn3cnc4c(N)ncnc43)c(N3CCC[C@@H](N)C3)cn2)cc1F [Example 1, (R)-9-((5-(3-aminopiperidin-1-yl)-2-(3-fluoro-4-methoxyphenyl)pyridin-4-yl)methyl)-9H-purin-6-amine] | 0.01 to 1 |  | 0.75 |  | 3.03 | 4.09 |  |  | 
COc1ccc(-c2cc(Cn3cnc4c(N)ncnc43)c(N3CCCC(N)(C(C)F)C3)cn2)cc1F (stereo not shown) [Example 295, 9-((5-(3-amino-3-(1-fluoroethyl)piperidin-1-yl)-2-(3-fluoro-4-methoxyphenyl)pyridin-4-yl)methyl)-9H-purin-6-amine] |  |  |  |  |  |  | 0.01 to 1 | 2.33 | 1.86
COc1ccc(-c2cc(Cn3cnc4c(N)ncnc43)c(N3CC[C@@H](F)[C@@H](N)C3)cn2)cc1F [Example 5, 9-((5-((3S,4R)-3-amino-4-fluoropiperidin-1-yl)-2-(3-fluoro-4-methoxyphenyl)pyridin-4-yl)methyl)-9H-purin-6-amine] | 0.01 to 1 | 6.46 | 1.77 |  |  |  |  |  | 
Nc1ncnc2c1ncn2Cc1cc(-c2ccc(F)c(F)c2)ncc1N1CCC[C@](N)(COC(F)F)C1 [Example 41, (R)-9-((5-(3-amino-3-((difluoromethoxy)methyl)piperidin-1-yl)-2-(3,4-difluorophenyl)pyridin-4-yl)methyl)-9H-purin-6-amine] | 0.01 to 1 | 1.09 |  | 2.31 |  |  |  |  | 
CO[C@@H](C)[C@@]1(N)CCCN(c2cnc(-c3ccc(F)c(F)c3)cc2Cn2cnc3c(N)ncnc32)C1 [Example 95, 9-((5-((R)-3-amino-3-((S)-1-methoxyethyl)piperidin-1-yl)-2-(3,4-difluorophenyl)pyridin-4-yl)methyl)-9H-purin-6-amine] | 0.01 to 1 | 1.82 | 1.65 | 3.03 |  |  |  |  | 
COc1ccc(-c2cc(Cn3cnc4c(N)ncnc43)c(N3CCC[C@](N)(COC(F)F)C3)cn2)cc1F [Example 42, (R)-9-((5-(3-amino-3-((difluoromethoxy)methyl)piperidin-1-yl)-2-(3-fluoro-4-methoxyphenyl)pyridin-4-yl)methyl)-9H-purin-6-amine] | 0.01 to 1 | 1.23 | 0.789 | 10.7 |  |  |  |  | 
COc1ccc(-c2cc(Cn3cnc4c(N)ncnc43)c(N3CCC[C@](N)(COC4CCC4)C3)cn2)cc1F [Example 32, (R)-9-((5-(3-amino-3-(cyclobutoxymethyl)piperidin-1-yl)-2-(3-fluoro-4-methoxyphenyl)pyridin-4-yl)methyl)-9H-purin-6-amine] | 0.001 to 0.01 | 0.27 | 0.196 | 0.728 |  |  |  |  | 
Nc1ncnc2c1ncn2Cc1cc(-c2ccc(F)c(F)c2)ncc1N1CCC[C@](N)(COC2CCC2)C1 [Example 30, (R)-9-((5-(3-amino-3-(cyclobutoxymethyl)piperidin-1-yl)-2-(3,4-difluorophenyl)pyridin-4-yl)methyl)-9H-purin-6-amine] | 0.001 to 0.01 | 0.569 | 0.659 | 2.03 |  |  |  |  | 
